For data set [1] the following is noted: rcm bond; 14-membered ring; Hoveyda-Grubbs II (25 mol%); DCE; 1.46 mM; 150.0 °C.
In data set [2] the test system is HCV replicons (NS3-NS5B regions of HCV type 1b) in Huh-7 luc/neo cells. Description: Replicon assay (Huh-Luc cells, luciferase readout). It counts as cell-based. The note with it: Hepatitis C virus, Huh-7, 72 h, three days incubation, luciferase activity. An excerpt: It will be appreciated that it is important to distinguish between compounds that specifically interfere with HCV functions from those that exert cytotoxic or cytostatic effects in the HCV replicon model, and as a consequence cause a decrease in HCV RNA or linked reporter enzyme concentration. Assays are known in the field for the evaluation of cellular cytotoxicity based for example on the activity of mitochondrial enzymes using fluorogenic redox dyes such as resazurin. Furthermore, cellular counter screens exist for the evaluation of non-selective inhibition of linked reporter gene activity, such as firefly luciferase.
The compounds of formula (I) were examined for activity in the inhibition of HCV RNA replication in a cellular assay. […] The cellular assay was based on a bicistronic expression construct, as described by Lohmann et al. (1999) Science vol. […]
The replicon cells were plated in 384 well plates in the presence of the test and control compounds which were added in various concentrations. Following an incubation of three days, HCV replication was measured by assaying luciferase activity (using standard luciferase assay substrates and reagents and a Perkin Elmer ViewLux™ ultraHTS microplate imager). […] The inhibitory activity of the compound on luciferase activity was monitored on the Huh-Luc cells, enabling a dose-response curve for each test compound.

Another data set deals with HCV. As to conditions: sustained administration; mutations D168V, D168A and/or A156S; cited from earlier work.
For a further data set, the target named is HCV NS3/4A protease (Hepatitis C virus genotype 1a, UniProt P27958). Description: biochemical. As to conditions: full-length NS3 protease 1 nM, 25 μM NS4A cofactor, competitive inhibition model; read-out: Ki (nM) Enzymatic assay. As to the method:
[Landro, 1997 #Biochem 36 9340-9348]. […] The solutions were stored at −20° C. between measurements.

For data set [3] the following is noted: rcm bond, DCE.

Results on seven compounds are retold here after patent publication US7666834B2, “Macrocyclic inhibitors of hepatitis C virus” (Tibotec Pharmaceuticals Ltd., priority 2005, dated 2010).

As usually defined, the EC50 is the concentration at which the effect is half-maximal. As a reminder, the Ki is a dissociation constant, usually derived from enzyme kinetics or from competition with a known ligand.

Where two headings read alike, the source gives them in different places.

Take `CN1CCCCC=CC2CC2(C(=O)NS(=O)(=O)C2CC2)NC(=O)C2CC(OC(=O)Nc3ccccc3N3CCCCC3)CC2C1=O` (centres unmarked): the ring closure, yield after HPLC in data set [1] was 36%. In data set [2], `CCOC(=O)c1ccccc1NC(=O)O[C@@H]1C[C@H]2C(=O)N[C@]3(C(=O)NS(=O)(=O)C4CC4)C[C@H]3/C=C\CCCCN(C)C(=O)[C@@H]2C1` [Compound 26, 2-(4-Cyclopropanesulfonylaminocarbonyl-13-methyl-2,14-dioxo-3,13-diaza-tricyclo-[13.3.0.0^4,6]octadec-7-en-17-yloxycarbonylamino)-benzoic acid ethyl ester] registered an EC50 of 0.0492 µM. `CCC[C@H](NC(=O)[C@@H]1[C@H]2CCC[C@H]2CN1C(=O)[C@@H](NC(=O)[C@@H](NC(=O)c1cnccn1)C1CCCCC1)C(C)(C)C)C(=O)C(=O)NC1CC1` [VX-950]: in the data set on HCV, the “selection of drug escape mutants” value was “selects HCV mutants which are resistant to the respective drug”. Consider `CN1CCCC/C=C\[C@@H]2C[C@@]2(C(=O)NS(=O)(=O)C2CC2)NC(=O)[C@@H]2C[C@@H](OC(=O)Nc3ccccc3F)C[C@H]2C1=O` [Compound 25, (2-Fluorophenyl)carbamic acid 4-cyclopropanesulfonyl-aminocarbonyl-13-methyl-2,14-dioxo-3,13-diazatricyclo[13.3.0.0^4,6]octadec-7-en-17-yl ester], for which the Ki on HCV NS3/4A protease stood at 51 nM. Moreover, the EC50 in data set [2] came to 8.4 µM. In the case of `COc1ccc2c(O[C@@H]3C[C@H]4C(=O)N[C@]5(C(=O)O)C[C@H]5/C=C\CCCCC[C@H](NC(=O)OC5CCCC5)C(=O)N4C3)cc(-c3csc(NC(C)C)n3)nc2c1` [BILN-2061], in the data set with HCV, the “selection of drug escape mutants” value was “selects HCV mutants which are resistant to the respective drug”. As to `CCOC(=O)C12CC1C=CCCCCCN(Cc1ccc(OC)cc1)C(=O)N1CC(O[Si](C)(C)C(C)(C)C)CC1C(=O)N2` (centres unmarked), the ring closure, isolated yield in data set [3] (from C=CCCCCCN(Cc1ccc(OC)cc1)C(=O)N1CC(O[Si](C)(C)C(C)(C)C)CC1C(=O)NC1(C(=O)OCC)CC1C=C, 15-membered ring, Hoveyda-Grubbs II (10 mol%), 1.6 mM) is 48%. With `CN1CCCCC=CC2CC2(C(=O)NS(=O)(=O)C2CC2)NC(=O)C2CC(O)CC2C1=O` (centres unmarked), in data set [3] (14-membered ring, Hoveyda-Grubbs II (15 mol%), 2.07 mM), the ring closure, isolated yield was 77%.
